In PubChem BioAssay (NCI) one finds GI50 and TGI data, which are given here for 10 compounds.

Values joined by “and” are separate entries in the source; they are usually repeats but may differ in a detail not shown here. Equal values may be shown once.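 These data come from cells grown in 96-well plates and exposed to compound for 48 hours at five concentrations. GI50: concentration for 50% inhibition of growth. TGI: total growth inhibition.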

Some test systems named below: DU-145 prostate; UO-31 renal; MDA-MB-435; OVCAR-5 ovarian; NCI-H522 lung; SK-OV-3 ovarian; KM12 colon.
Common to all, as to experiment: growth of human tumour cells (NCI), 48 h

`CN(C)c1ccc(N=C2C=CC(=O)c3ccccc32)cc1`: the GI50 with DU-145 prostate is 1.74 µM; in the assay on UO-31 renal it was 2.28 µM; with MDA-MB-435, 1.85 µM; in the assay with OVCAR-5 ovarian it was 12.6 µM; in the assay on NCI-H522 lung, 1.97 µM; with SK-OV-3 ovarian, 17 µM. Further, the GI50 in the assay on KM12 colon is 2.69 µM. Further, the TGI is 3.13 µM in the assay with DU-145 prostate; 16.6 µM with UO-31 renal; 3.58 µM in the assay with MDA-MB-435; 28.8 µM in the assay on OVCAR-5 ovarian; 4.51 µM in the assay on NCI-H522 lung; greater than 100 µM in the assay on SK-OV-3 ovarian. For the same compound, in the assay on KM12 colon, the TGI came out at 10.2 µM.

Take `Nc1ncnc2c1ccn2[C@@H]1O[C@H]([C@H](O)c2ccc(Cl)c(F)c2)[C@@H](O)[C@H]1O`: the GI50 in the assay on DU-145 prostate was greater than 100 µM; in the assay with UO-31 renal it was 45.3 µM; in the assay with MDA-MB-435, greater than 100 µM; in the assay on OVCAR-5 ovarian, greater than 100 µM; with NCI-H522 lung, greater than 100 µM; with SK-OV-3 ovarian, greater than 100 µM. The GI50 with KM12 colon was greater than 100 µM. For the same compound, the TGI with DU-145 prostate, in the assay with UO-31 renal, in the assay with MDA-MB-435, in the assay on OVCAR-5 ovarian, with NCI-H522 lung and in the assay with SK-OV-3 ovarian was greater than 100 µM each time. This compound also yielded a TGI in the assay on KM12 colon greater than 100 µM.

As for `[CH3][Sn]([CH3])([CH3])[O][N+](=O)[O-]`, the GI50 is greater than 10 µM in the assay on DU-145 prostate; greater than 10 µM in the assay with UO-31 renal; 5.93 µM in the assay on MDA-MB-435; 6.73 µM in the assay with OVCAR-5 ovarian; 1.64 µM with NCI-H522 lung; greater than 10 µM in the assay on SK-OV-3 ovarian. Moreover, in the assay on KM12 colon, the GI50 was greater than 10 µM. The TGI with DU-145 prostate is greater than 10 µM; in the assay on UO-31 renal it was greater than 10 µM; with MDA-MB-435 it was greater than 10 µM; in the assay with OVCAR-5 ovarian it was greater than 10 µM; in the assay on NCI-H522 lung, 3.07 µM; with SK-OV-3 ovarian, greater than 10 µM. In the assay on KM12 colon, the TGI was greater than 10 µM.

In the case of `C/C(=N/Nc1nc(C)cc(=O)[nH]1)C(=O)O`, the TGI with DU-145 prostate, in the assay with UO-31 renal, in the assay with MDA-MB-435, with OVCAR-5 ovarian, with NCI-H522 lung and with SK-OV-3 ovarian was greater than 100 µM in each case. The compound further yielded a TGI in the assay on KM12 colon greater than 100 µM.

For the compound `Cc1ccc(S(=O)(=O)N2CCc3ccc(O)c4c3C2Cc2ccc3c(c2-4)OCO3)cc1` (stereo not drawn), the GI50 in the assay on DU-145 prostate was 1.27 µM; in the assay with UO-31 renal, 0.904 µM; in the assay on MDA-MB-435, 0.216 µM; in the assay on OVCAR-5 ovarian, 3.19 µM; with NCI-H522 lung, 0.393 µM; in the assay with SK-OV-3 ovarian, 0.731 µM. The GI50 in the assay with KM12 colon is 0.456 µM. For the same compound, the TGI with DU-145 prostate worked out at 8.63 µM; in the assay on UO-31 renal it was 11.8 µM; with MDA-MB-435 it was 0.539 µM; with OVCAR-5 ovarian, 45.8 µM; in the assay on NCI-H522 lung, 2.08 µM; with SK-OV-3 ovarian, 8.09 µM. This compound showed a TGI in the assay with KM12 colon of 3.66 µM.

As to `Cc1ccc(OCC2OC(n3cnc4c(Br)nc(Br)nc43)CC2Oc2ccc(C)cc2)cc1` (stereo not drawn), the GI50 was 13.1 µM in the assay with DU-145 prostate; 11.9 µM in the assay with UO-31 renal; 6.85 µM with MDA-MB-435; 16.1 µM with OVCAR-5 ovarian; 1.65 µM in the assay on NCI-H522 lung; 11.2 µM with SK-OV-3 ovarian. Also, the GI50 in the assay with KM12 colon is 2.46 µM. The TGI is 23.8 µM and 5.88 µM with DU-145 prostate; 22.3 µM and 28.4 µM in the assay on UO-31 renal; 19.4 µM and 19.5 µM with MDA-MB-435; 34.2 µM and 42.2 µM with OVCAR-5 ovarian; 2.8 µM and 3.27 µM in the assay on NCI-H522 lung; 21.4 µM and > 54.2 µM with SK-OV-3 ovarian. For the same compound, the TGI in the assay with KM12 colon was 8.76 µM and 9.56 µM.

As to `CCn1ccc(NS(=O)(=O)c2ccc(N)cc2)nc1=O`, the GI50 with DU-145 prostate, in the assay with UO-31 renal, in the assay with MDA-MB-435, in the assay with OVCAR-5 ovarian, in the assay with NCI-H522 lung and in the assay with SK-OV-3 ovarian was greater than 100 µM throughout. Besides, in the assay with KM12 colon, the GI50 is greater than 100 µM. Moreover, the TGI with DU-145 prostate, in the assay with UO-31 renal, with MDA-MB-435, with OVCAR-5 ovarian, with NCI-H522 lung and in the assay with SK-OV-3 ovarian was greater than 100 µM throughout. In the assay on KM12 colon, this compound registered a TGI greater than 100 µM.

Regarding `FC(F)(F)c1cc(Nc2ccc3cc(OCCCN4CCOCC4)ccc3n2)ccc1Cl`, the GI50 in the assay on DU-145 prostate is 3.17 µM; in the assay with UO-31 renal, 1.55 µM; in the assay on MDA-MB-435 it was 1.75 µM; in the assay on OVCAR-5 ovarian, 2.21 µM; with NCI-H522 lung it was 2.04 µM; in the assay with SK-OV-3 ovarian, 2.21 µM. In the assay on KM12 colon, the GI50 is 1.92 µM. Further, the TGI in the assay on DU-145 prostate was 13.3 µM; in the assay on UO-31 renal, 3.27 µM; in the assay with MDA-MB-435 it was 3.61 µM; in the assay with OVCAR-5 ovarian it was 5.84 µM; with NCI-H522 lung, 3.82 µM; in the assay with SK-OV-3 ovarian, 4.87 µM. This compound also had a TGI in the assay with KM12 colon of 4.37 µM.

As to `CN(C)CCOC(=O)Nc1nc2ccc(Sc3ccccc3)cc2[nH]1`, the GI50 with DU-145 prostate was 4.09 µM; in the assay with UO-31 renal, 3.11 µM; in the assay with MDA-MB-435, 0.432 µM; in the assay on OVCAR-5 ovarian, 4.22 µM; in the assay on NCI-H522 lung, 2.58 µM; with SK-OV-3 ovarian, 3.87 µM. Moreover, in the assay on KM12 colon, the GI50 was 3.51 µM. For the same compound, the TGI in the assay with DU-145 prostate came out at 18.8 µM; in the assay with UO-31 renal, 15.4 µM; in the assay on MDA-MB-435, 2.26 µM; in the assay on OVCAR-5 ovarian it was 21.1 µM; with NCI-H522 lung, 10.8 µM; with SK-OV-3 ovarian it was 23.7 µM. The TGI in the assay on KM12 colon was 19.7 µM.

With `CSc1ccc(C(=O)/C=C/c2ccccc2Cl)cc1`, the GI50 was 13.9 µM in the assay on DU-145 prostate; 2.31 µM in the assay on UO-31 renal; 12.4 µM in the assay with MDA-MB-435; 16.1 µM in the assay on OVCAR-5 ovarian; 10.9 µM in the assay on NCI-H522 lung; 32.3 µM in the assay with SK-OV-3 ovarian. In the assay with KM12 colon, the GI50 was 16.6 µM. For the same compound, the TGI with DU-145 prostate is 29 µM; in the assay with UO-31 renal, 5.05 µM; in the assay on MDA-MB-435, 30.2 µM; in the assay on OVCAR-5 ovarian, 31.6 µM; in the assay with NCI-H522 lung, 33.1 µM; in the assay on SK-OV-3 ovarian, greater than 100 µM. In the assay on KM12 colon, the TGI is 42 µM.
